Experimental data reported in ChEMBL document CHEMBL5291721, “A preclinical secondary pharmacology resource illuminates target-adverse drug reaction associations of marketed drugs” (Nat Commun, 2023).

Assays:
[1] = molecular target: T1, Alpha-2A adrenergic receptor (Homo sapiens, UniProt P08913); format: functional, cell-based
T1 sequence (P08913 whole entry): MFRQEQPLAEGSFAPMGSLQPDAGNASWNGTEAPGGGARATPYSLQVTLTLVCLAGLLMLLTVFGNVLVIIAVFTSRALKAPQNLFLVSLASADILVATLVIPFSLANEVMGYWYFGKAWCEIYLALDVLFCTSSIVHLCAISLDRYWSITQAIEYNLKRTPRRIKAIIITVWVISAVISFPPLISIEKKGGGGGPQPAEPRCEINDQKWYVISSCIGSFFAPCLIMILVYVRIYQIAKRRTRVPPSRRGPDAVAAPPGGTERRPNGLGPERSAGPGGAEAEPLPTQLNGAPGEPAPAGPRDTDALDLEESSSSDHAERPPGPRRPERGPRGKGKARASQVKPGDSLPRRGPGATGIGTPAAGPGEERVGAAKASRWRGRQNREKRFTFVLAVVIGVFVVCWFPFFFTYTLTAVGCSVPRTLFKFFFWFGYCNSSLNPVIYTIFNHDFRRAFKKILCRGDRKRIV

[2] = molecular target: T2, Muscarinic acetylcholine receptor M1 (Homo sapiens, UniProt P11229); format: functional
T2 sequence (P11229 whole entry): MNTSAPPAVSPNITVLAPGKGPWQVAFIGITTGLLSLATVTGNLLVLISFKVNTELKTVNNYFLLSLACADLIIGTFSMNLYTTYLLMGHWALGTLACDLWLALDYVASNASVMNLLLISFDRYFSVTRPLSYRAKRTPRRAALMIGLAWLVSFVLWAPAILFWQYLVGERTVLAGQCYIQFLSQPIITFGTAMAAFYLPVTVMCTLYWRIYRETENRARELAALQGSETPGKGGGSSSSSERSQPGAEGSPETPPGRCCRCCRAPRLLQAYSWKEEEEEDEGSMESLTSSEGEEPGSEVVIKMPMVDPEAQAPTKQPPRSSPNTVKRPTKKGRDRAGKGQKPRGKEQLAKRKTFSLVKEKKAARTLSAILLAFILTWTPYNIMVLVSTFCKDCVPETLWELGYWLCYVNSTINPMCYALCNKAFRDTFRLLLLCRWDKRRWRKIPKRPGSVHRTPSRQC

[3] = molecular target: T3, 5-hydroxytryptamine receptor 2C (Homo sapiens, UniProt P28335)
T3 sequence (P28335 whole entry): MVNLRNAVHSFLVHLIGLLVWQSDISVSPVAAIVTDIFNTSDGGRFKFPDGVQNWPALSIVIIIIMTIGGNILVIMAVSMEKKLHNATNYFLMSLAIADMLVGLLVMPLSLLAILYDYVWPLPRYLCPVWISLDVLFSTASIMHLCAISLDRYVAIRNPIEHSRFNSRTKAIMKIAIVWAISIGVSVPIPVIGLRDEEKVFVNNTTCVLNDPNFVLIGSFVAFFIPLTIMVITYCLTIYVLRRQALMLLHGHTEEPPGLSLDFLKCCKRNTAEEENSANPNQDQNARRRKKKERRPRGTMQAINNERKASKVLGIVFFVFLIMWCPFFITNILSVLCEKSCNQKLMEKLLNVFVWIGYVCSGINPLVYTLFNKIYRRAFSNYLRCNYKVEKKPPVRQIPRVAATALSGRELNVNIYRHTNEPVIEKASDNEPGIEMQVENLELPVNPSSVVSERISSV

[4] = molecular target: T4, B2 bradykinin receptor (Homo sapiens, UniProt P30411)
T4 sequence (P30411 whole entry): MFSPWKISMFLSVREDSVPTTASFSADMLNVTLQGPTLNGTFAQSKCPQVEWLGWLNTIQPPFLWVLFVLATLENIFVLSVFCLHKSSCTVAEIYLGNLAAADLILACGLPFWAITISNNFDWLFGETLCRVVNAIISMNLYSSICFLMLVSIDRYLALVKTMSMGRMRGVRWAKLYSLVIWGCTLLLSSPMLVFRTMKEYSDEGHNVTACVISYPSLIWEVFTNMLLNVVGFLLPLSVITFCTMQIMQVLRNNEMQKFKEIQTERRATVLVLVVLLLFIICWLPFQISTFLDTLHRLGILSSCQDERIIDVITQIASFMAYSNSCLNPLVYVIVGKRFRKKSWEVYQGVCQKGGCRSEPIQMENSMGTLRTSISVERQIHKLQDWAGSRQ

[5] = molecular target: T5, Glucocorticoid receptor (Homo sapiens, UniProt P04150)
T5 sequence (P04150 whole entry): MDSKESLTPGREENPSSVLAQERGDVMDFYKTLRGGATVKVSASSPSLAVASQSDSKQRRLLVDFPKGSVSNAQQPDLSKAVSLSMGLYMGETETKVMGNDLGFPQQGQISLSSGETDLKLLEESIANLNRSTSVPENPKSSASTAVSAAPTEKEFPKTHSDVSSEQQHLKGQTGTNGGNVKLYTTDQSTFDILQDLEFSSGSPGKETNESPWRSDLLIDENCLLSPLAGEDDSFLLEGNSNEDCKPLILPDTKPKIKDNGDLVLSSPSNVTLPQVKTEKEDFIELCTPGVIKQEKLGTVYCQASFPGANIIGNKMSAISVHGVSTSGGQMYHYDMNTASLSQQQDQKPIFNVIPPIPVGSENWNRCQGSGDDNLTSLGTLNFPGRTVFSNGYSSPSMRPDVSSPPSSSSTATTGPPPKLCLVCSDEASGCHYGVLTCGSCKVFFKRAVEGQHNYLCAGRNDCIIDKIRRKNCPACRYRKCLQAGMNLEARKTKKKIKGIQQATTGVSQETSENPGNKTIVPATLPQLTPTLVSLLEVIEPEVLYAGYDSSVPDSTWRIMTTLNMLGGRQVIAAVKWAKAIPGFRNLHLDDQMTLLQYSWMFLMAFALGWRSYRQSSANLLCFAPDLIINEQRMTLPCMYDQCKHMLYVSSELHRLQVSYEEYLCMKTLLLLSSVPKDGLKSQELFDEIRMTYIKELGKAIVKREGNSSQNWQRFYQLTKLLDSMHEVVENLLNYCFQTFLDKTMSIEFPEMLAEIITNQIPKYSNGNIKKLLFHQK
Note: assay procedure not described here.

Structure (SMILES) | AC50 [1] [µM] | AC50 [2] [µM] | AC50 [3] [µM] | AC50 [4] [µM] | AC50 [5] [µM]
CC(=N)N1CC[C@H](SC2=C(C(=O)O)N3C(=O)[C@H]([C@@H](C)O)[C@H]3C2)C1 | > 300 | 68 | > 300 | – | –
CC(/C=C1\SC(=S)N(CC(=O)O)C1=O)=C\c1ccccc1 | > 30 | – | 6.4 | > 10 | –
CC1(C)S[C@@H]2[C@H](NC(=O)[C@H](N)c3ccc(O)cc3)C(=O)N2[C@H]1C(=O)O [AMOXICILLIN] | > 30 | – | > 30 | > 30 | –
O=C1CN2Cc3c(ccc(Cl)c3Cl)N=C2N1 [ANAGRELIDE] | > 10 | > 10 | > 30 | > 30 | > 30
CNCC[C@@H](Oc1ccccc1C)c1ccccc1 [ATOMOXETINE] | – | – | – | > 30 | > 30
CCc1oc2ccccc2c1C(=O)c1cc(Br)c(O)c(Br)c1 [BENZBROMARONE] | 3.74 | – | > 30 | > 30 | 11
C=C(C)[C@@H]1CCC(C)=C[C@H]1c1c(O)cc(CCCCC)cc1O [CANNABIDIOL] | > 10 | > 30 | > 30 | – | –
CO/N=C(\C(=O)N[C@@H]1C(=O)N2C(C(=O)O)=C(COC(N)=O)CS[C@H]12)c1ccco1 [CEFUROXIME] | > 30 | > 30 | > 30 | > 30 | > 30
[H]/N=C(\N/C(=N/[H])NCCCCCCNC(=N)NC(=N)Nc1ccc(Cl)cc1)Nc1ccc(Cl)cc1 [CHLORHEXIDINE] | 4.34 | > 10 | 5.4 | – | > 30
Clc1cccc(Cl)c1N=C1NCCN1 [CLONIDINE] | – | – | > 30 | > 30 | > 30
COC(=O)[C@H](c1ccccc1Cl)N1CCc2sccc2C1 [CLOPIDOGREL] | 11 | – | > 30 | > 30 | > 30
CN1C[C@H](C(=O)N[C@]2(C)O[C@@]3(O)[C@@H]4CCCN4C(=O)[C@H](Cc4ccccc4)N3C2=O)C[C@@H]2c3cccc4[nH]cc(c34)C[C@H]21 [DIHYDROERGOTAMINE] | – | – | 0.5 | > 30 | > 30
CNCC[C@H](Oc1cccc2ccccc12)c1cccs1 [DULOXETINE] | > 10 | > 10 | 13 | > 30 | > 30
CC1(C)O[C@@H]2C[C@H]3[C@@H]4C[C@H](F)C5=CC(=O)C=C[C@]5(C)[C@H]4[C@@H](O)C[C@]3(C)[C@]2(C(=O)CO)O1 [FLUNISOLIDE] | 2 | – | > 30 | – | –
CCC(=O)O[C@@H](O[P@](=O)(CCCCc1ccccc1)CC(=O)N1C[C@H](C2CCCCC2)C[C@H]1C(=O)O)C(C)C [FOSINOPRIL] | > 30 | > 30 | > 30 | – | –
Nc1nc(O)c2ncn(COC(CO)CO)c2n1 [GANCICLOVIR] | > 30 | – | > 30 | > 30 | > 30

Structure (SMILES) | AC50 [1] [µM] | AC50 [2] [µM] | AC50 [3] [µM] | AC50 [4] [µM] | AC50 [5] [µM]
C[C@H]1Oc2cc(cnc2N)-c2c(nn(C)c2C#N)CN(C)C(=O)c2ccc(F)cc21 [LORLATINIB] | > 30 | > 30 | > 30 | – | –
Cc1cnc(NC(=O)C2=C(O)c3ccccc3S(=O)(=O)N2C)s1 [MELOXICAM] | > 10 | – | > 10 | > 30 | > 30
CC[C@@H](CO)NC(=O)[C@@H]1C=C2c3cccc4[nH]cc(c34)C[C@H]2N(C)C1 [METHYLERGONOVINE] | 17 | – | 0.12 | > 30 | > 30
CNCCC=C1c2ccccc2CCc2ccccc21 [NORTRIPTYLINE] | – | – | – | > 30 | > 30
COc1ccnc(C[S+]([O-])c2nc3ccc(OC(F)F)cc3[nH]2)c1OC (configuration not stated) [PANTOPRAZOLE] | > 10 | – | > 30 | > 30 | > 30
COc1ccc(Cc2nccc3cc(OC)c(OC)cc23)cc1OC [PAPAVERINE] | > 30 | – | > 30 | > 30 | –
O=C1NC(=O)C(c2ccccc2)(c2ccccc2)N1 [PHENYTOIN] | > 30 | – | > 30 | > 30 | > 30
CNC(=O)c1cc(Oc2ccc(NC(=O)Nc3ccc(Cl)c(C(F)(F)F)c3)c(F)c2)ccn1 [REGORAFENIB] | – | > 30 | – | – | –
CCOc1cc(CC(=O)N[C@@H](CC(C)C)c2ccccc2N2CCCCC2)ccc1C(=O)O [REPAGLINIDE] | > 30 | > 30 | > 30 | – | –
NC(=O)c1ncn([C@@H]2O[C@H](CO)[C@@H](O)[C@H]2O)n1 [RIBAVIRIN] | > 10 | – | > 30 | > 10 | > 10
CCCN(CCc1cccs1)[C@H]1CCc2c(O)cccc2C1 [ROTIGOTINE] | > 10 | 25 | > 30 | – | –
CC[C@H]1OC(=O)[C@H](C)[C@@H](O[C@H]2C[C@@](C)(OC)[C@@H](O)[C@H](C)O2)[C@H](C)[C@@H](O[C@@H]2O[C@H](C)C[C@H](N(C)C)[C@H]2O)[C@](C)(O)C[C@@H](C)/C(=N\OCOCCOC)[C@H](C)[C@@H](O)[C@]1(C)O [ROXITHROMYCIN] | > 30 | – | > 30 | – | –
CC(=O)S[C@@H]1CC2=CC(=O)CC[C@]2(C)[C@H]2CC[C@@]3(C)[C@@H](CC[C@@]34CCC(=O)O4)[C@H]12 [SPIRONOLACTONE] | > 30 | – | > 30 | > 30 | 0.19
CCCCNc1ccc(C(=O)OCCN(C)C)cc1 [TETRACAINE] | > 10 | – | > 10 | > 30 | > 30
Cn1c(=O)c2[nH]cnc2n(C)c1=O [THEOPHYLLINE] | > 10 | – | > 30 | > 30 | –
CN1CCN(CCCN2c3ccccc3Sc3ccc(S(=O)(=O)N(C)C)cc32)CC1 [THIOPROPERAZINE] | > 30 | 12 | 6.14 | – | –
